Like-named read-outs stand apart in the source and are kept apart here.

Series [1] deals with Peptostreptocococcus micros (ATCC 33270). The series is described as follows: PDT on endodontic pathogens in planktonic phase: P. micros. The following applies: methylene blue 25 μg/ml, 5 minutes, mean ± standard error; for Surviving species, PDT: red light 665 nm 30 J/cm^2. It is filed as cell-based. The method, then: (§1) The effects of PDT were investigated on endodontic pathogens in planktonic phase as well as on Enterococcus faecalis biofilms in experimentally infected root canals of extracted teeth. Strains of Porphyromonas gingivalis (ATCC 33277), P. intermedia (ATCC 25611), Fusobacterium nucleatum nucleatum (ATCC 25586), Peptostreptocococcus micros (ATCC 33270), Porphyromonas endodontalis (ATCC 35406), and E. faecalis (ATCC 29212) were sensitized with methylene blue (MB) (25 μg/ml) for 5 minutes followed by exposure to res light of 665 nm with an energy fluence of 30 J/cm^2. […] In Table 1, Surviving species are expressed as percentage-of-controls receiving neither methylene blue nor light. Each value is the mean of values obtained from 2 to 4 experiments (±standard error). The same concentration of MB in combination with red light (222 J/cm^2) was able to eliminate 97% of E. faecalis biofilm bacteria in root canals. Light was uniformly delivered at 360 degrees in the root canal system with a flexible optical fiber with cylindrical diffusers and a diameter of 500 μm. Table 1 presents the survival of endodontic bacteria after their incubation only with methylene blue (25 μg/ml) or methylene blue (25 μg/ml) and red light (30 J/cm^2): […]

Series [2] deals with E. faecalis (ATCC 29212). The experiment in a line: PDT on endodontic pathogens in planktonic phase: E. faecalis. It is filed as cell-based, Enterococcus faecalis. The method, then:
as §1

Series [3] relates to Fusobacterium nucleatum nucleatum (ATCC 25586). The series is described as follows: PDT on endodontic pathogens in planktonic phase: F. nuc. nuc. It is filed as cell-based. Particulars: methylene blue 25 μg/ml, 5 minutes, mean ± standard error; for Surviving species, PDT: red light 665 nm 30 J/cm^2. The method, then: as §1
In series [4] the test system is P. intermedia (ATCC 25611). The series is described as follows: PDT on endodontic pathogens in planktonic phase: P. intermedia. It is filed as cell-based, Prevotella intermedia. Particulars: methylene blue 25 μg/ml, 5 minutes; for Surviving species, PDT: red light 665 nm 30 J/cm^2. The method, then: as §1
Series [5] has as its system Porphyromonas gingivalis (ATCC 33277). The series is described as follows: PDT on endodontic pathogens in planktonic phase: P. gingivalis. The following applies: methylene blue 25 μg/ml, 5 minutes; for Surviving species, PDT: red light 665 nm 30 J/cm^2. It is filed as cell-based. The procedure:
as §1

The subject of series [6] is Porphyromonas endodontalis (ATCC 35406). The experiment in a line: PDT on endodontic pathogens in planktonic phase: P. endodontalis. It is filed as cell-based. Particulars: methylene blue 25 μg/ml, 5 minutes; for Surviving species, PDT: red light 665 nm 30 J/cm^2. The method, then: as §1
The test system of series [7] is Enterococcus faecalis biofilms. The experiment in a line: PDT on E. faecalis biofilms in experimentally infected root canals of extracted teeth. Particulars: MB 25 μg/ml in combination with red light 222 J/cm^2. It is filed as cell-based.
Procedure: The effects of PDT were investigated on endodontic pathogens in planktonic phase as well as on Enterococcus faecalis biofilms in experimentally infected root canals of extracted teeth. Strains of Porphyromonas gingivalis (ATCC 33277), P. intermedia (ATCC 25611), Fusobacterium nucleatum nucleatum (ATCC 25586), Peptostreptocococcus micros (ATCC 33270), Porphyromonas endodontalis (ATCC 35406), and E. faecalis (ATCC 29212) were sensitized with methylene blue (MB) (25 μg/ml) for 5 minutes followed by exposure to res light of 665 nm with an energy fluence of 30 J/cm^2. […] In Table 1, Surviving species are expressed as percentage-of-controls receiving neither methylene blue nor light. Each value is the mean of values obtained from 2 to 4 experiments (±standard error). […] Light was uniformly delivered at 360 degrees in the root canal system with a flexible optical fiber with cylindrical diffusers and a diameter of 500 μm.
The test system of series [8] is multispecies root canal biofilms comprising Actinomyces israelii, Fusobacterium nucleatum subspecies nucleatum, Porphyromonas gingivalis, and Prevotella …. The experiment in a line: PDT on multispecies root canal biofilms in extracted human teeth, CFU assay. It is filed as cell-based. Particulars: MB 25 μg/mL 10 minutes, red light 665 nm 30 J/cm^2.
Procedure: The photodynamic effects of methylene blue (MB) on multispecies root canal biofilms comprising Actinomyces israelii, Fusobacterium nucleatum subspecies nucleatum, Porphyromonas gingivalis, and Prevotella intermedia in experimentally infected root canals of extracted human teeth were investigated in vitro.
Root canal systems were incubated with MB (25 μg/mL) for 10 minutes followed by exposure to red light at 665 nm with an energy fluence of 30 J/cm^2. Light was delivered from a diode laser via a 250-μm diameter polymethyl methacrylate optical fiber that uniformly distributed light over 360 degrees (FIG. 2). […] In FIG. 5, each bar is the mean Logic, CFU levels (+standard error).
For series [9], the system named is human gingival fibroblasts. The experiment in a line: Cell viability, neutral red assay, fibroblasts. It is filed as cell-based. Particulars: 50 μg/mL MB, no light, 0 and 24 hours. The procedure: (§2) In this study, the viability of human gingival fibroblasts and osteoblasts in vitro was assessed after exposure to methylene blue (MB) and red light with parameters similar to those that may be applied in a clinical setting. […] Both cell types were sensitized with 50 μg/mL methylene blue followed by exposure to red light at 665 nm for 5 minutes with an irradiance of 10, 20, and 40 mW/cm^2. The power densities were 10, 20, and 40 mW/cm^2, corresponding with energy fluencies of 3, 6, and 12 J/cm^2, respectively. In previous studies, light with a power density of 100 mW/cm^2 was used for killing endodontic pathogens within infected root canal specimens in vitro. A portion of that light propagates in dentin and escapes from the tooth. The power density of light escaping from the root specimen ranges from 5 to 10 mW/cm^2 depending on the morphology of the root canal system. In the present study, up to fourfold greater power densities were used.
After photodynamic therapy (PDT), cell viability and mitochondrial activity were evaluated by the neutral red and MTT assay, respectively. The assessment of PDT-induced apoptosis was investigated by western blot analysis using cleaved poly(ADPribose) polymerase-specific antibodies. […] Twenty-four hours after treatment, cultures were stopped and analyzed by western blot using cleaved PARP− and b-actin-specific antibodies.

Series [10] deals with osteoblasts. Particulars: for reduction of viability, MB alone: human, 50 μg/mL. The procedure:
as §2
(§3) After photodynamic therapy (PDT), cell viability and mitochondrial activity were evaluated by the neutral red and MTT assay, respectively. The assessment of PDT-induced apoptosis was investigated by western blot analysis using cleaved poly(ADPribose) polymerase-specific antibodies. […] Osteoblasts (A) and fibroblasts (B) were treated with MB only (lane MB+), light only (lane L+), or light and MB (lane L+MB+). Control cultures were left untreated (lane −) or treated with 200 μmol/L staurosporine (lane +). Twenty-four hours after treatment, cultures were stopped and analyzed by western blot using cleaved PARP− and b-actin-specific antibodies.

Series [11] deals with human gingival fibroblasts. The following applies: 24 h, 50 μg/mL. The procedure:
(§4) FIG. 7 presents two bar graphs on the growth of methylene blue (MB)-sensitized gingival fibroblasts and osteoblasts as determined by the MTT assay after their exposure to red light.
as §2, §3

For series [12], the system named is osteoblasts. The procedure: as §4, §2, §3
The subject of series [13] is human gingival fibroblasts. The series is described as follows: PDT-induced apoptosis, western blot for cleaved PARP, fibroblasts. It is filed as cell-based. Particulars: twenty-four hours after treatment. The procedure:
as §3

For series [14], the system named is osteoblasts. The experiment in a line: PDT-induced apoptosis, western blot for cleaved PARP, osteoblasts. It is filed as cell-based, human. Particulars: twenty-four hours after treatment. The procedure: as §3
The subject of series [15] is E. faecalis (ATCC 29212).

Take `CN(C)c1ccc2nc3ccc(=[N+](C)C)cc-3sc2c1` [methylene blue]: the “Surviving species, only methylene blue” value in series [1] (no light) stood at 21 ± 10.6 percentage-of-controls; in [2] (methylene blue 25 μg/ml, 5 minutes, no light, mean ± standard error), 94.5 ± 17.6 percentage-of-controls; in series [3] (no light), 5.5 ± 0.4 percentage-of-controls; in [4] (no light) it was 0 percentage-of-controls; in series [5] (no light, mean ± standard error), 6.7 ± 0.1 percentage-of-controls; in [6] (no light) it was 0 percentage-of-controls. Also, the “Surviving species, PDT” value in series [1] is reported as 0 percentage-of-controls; in series [1] (listed as MB), “fully eliminated”; in series [2] (methylene blue 25 μg/ml, 5 minutes, red light 665 nm 30 J/cm^2, mean ± standard error), 47 ± 12.1 percentage-of-controls; in series [3] it was 0 percentage-of-controls; in series [3] (listed as MB) it was “fully eliminated”; in series [4] it was 0 percentage-of-controls. In addition, the “Surviving species, PDT” value is “fully eliminated” in series [4] (listed as MB); 0 percentage-of-controls in [5]; “fully eliminated” in [5] (listed as MB); 0 percentage-of-controls in series [6]; “fully eliminated” in series [6] (listed as MB). In addition, the killing in [2] (planktonic, MB 25 μg/ml 5 minutes, light 665 nm 30 J/cm^2) turned out to be 53%. Moreover, in series [7], the “E. faecalis biofilm bacteria in root canals eliminated” value came out at 97%. For the same compound, the “reduction of colony-forming unit counts (CFU), PDT” value in series [8] is “up to 80%”. For the same compound, in series [8] (FIG. 5), the “mean CFU levels, combination of light and MB versus control or MB alone” value is listed as “significantly lower than either control or MB alone”. Also, the “effect of MB alone on viability” value in series [9] is “no effect”. The “reduction of viability, MB alone” value in series [10] (0 h) was found to be 9.4%; in [10] (24 h), 14.6%. Further, the “reduction of mitochondrial activity, L40+MB+” value in series [11] is given as 18.5%; in series [12] (human, 24 h, 50 μg/mL), “approximately 34%”. For the same compound, the “reduction of mitochondrial activity, MB alone” value in series [12] (human, 0 h, 50 μg/mL) is given as 3.1%; in series [12] (human, 24 h, 50 μg/mL), 13.5%. Further, in series [12] (human, 24 h, 50 μg/mL), the “reduction of mitochondrial activity, L20+MB+” value is given as “approximately 34%”. Besides, the “PARP cleavage, light and MB” value in [13] (lane L+MB+) and in series [14] (lane L+MB+) was “Neither treatment resulted in PARP cleavage” in each case. Moreover, the “PARP cleavage, MB only” value in series [13] (lane MB+) and in series [14] (lane MB+) was “Neither treatment resulted in PARP cleavage” throughout. Moreover, the “reduction of E. faecalis viability, PDT” value in series [15] (6.25 μg/ml MB 5 minutes, light 665 nm 60 J/cm^2) is reported as 77.5%. Moreover, the “reduction of bacterial viability, MB alone” value in [15] (6.25 μg/ml MB, no light) is given as 19.5%.

For the compound `OCl` [sodium hypochlorite], the “effect of sodium hypochlorite on osteoblasts, neutral red assay” value in series [10] was “completely eliminated cells”. In addition, the “effect of sodium hypochlorite on osteoblasts, MTT assay” value in series [12] was “completely eliminated cells”.

(Values after patent US20150030989A1, “Handheld Device for Delivering Photodynamic Therapy” (The Forsyth Institute, priority 2012, published 2015).)
